Several values for one entry are separate records, joined by “and”; a condition that tells them apart may be missing. Equal entries are not always repeated.
What was measured:
Format in all cases: cell-based
H3K23Ac (KAT6A/B) = test: Histone biomarker bottom-up LC-MS/MS, MCF-7; settings: for Ratio, H3_18_26 K23ac: Replicates 1-3
Text: In this approach. […] Histones are then extracted from cell pellets and chemically derivatized with propionic anhydride, digested with trypsin, subjected to a second round of propionylation, and analyzed by LC-MS/MS. Measuring the relative intensity of modified versus unmodified forms of individual histone peptides enables simultaneous monitoring of multiple potential biomarkers of MYST inhibition. To minimize false positives, we focused on abundant and reproducible modifications (average stoichiometry of greater than 1% across triplicate samples, standard deviation less than or equal to the average measurement). To account for potential histone modification crosstalk, changes in both acetylated and methylated peptides were evaluated. 38 modified peptides passed this reproducible detection threshold including several established KAT biomarkers[41] including H3K9Ac (KAT2A/B), H3K18Ac (KAT3A/B), H3K14Ac (KAT7), H3K23Ac (KAT6A/B), H4K16Ac (KAT8), and H2A.ZK4/K7Ac (KAT5; Fig. 4B).
Genetic perturbations have unambiguously determined the dependence of H3K23Ac on KAT6A/B.[9], [41] The H3K23Ac biomarker critically complements chemoproteomics by allowing sensitive assessment of KAT6A and KAT6B activity, whose active site occupancy is otherwise difficult to assess. […] This is significant since several studies have used H3K9Ac as a proxy for KAT6A/B inhibition (Table S7),[8], [42] even though its regulation is most commonly attributed to KAT2A/B.[41] Since LC-MS/MS assays require specialized equipment and technical expertise, we also validated a panel of histone acetylation antibodies that recapitulate the dose-dependent inhibition of MYST targets by western blot (Fig. 4E). […]
nuclei were pelleted by centrifugation (600 rcf, 4°C, 5 min). Pelleted nuclei were washed twice with 150 μL of detergent-free NIB buffer, followed by centrifugation (600 rcf, 4°C, 5 min) to remove all detergent.
Nuclei were then resuspended in 400 μL of 0.4 N H₂SO₄ and rotated at 4°C overnight for acid extraction of histones. The following day, samples were centrifuged (11,000 rcf, 4°C, 10 min) and the histone-containing supernatant was transferred to a fresh tube. Trichloroacetic acid (100% TCA) was added to achieve a final concentration of 20% (v/v), tubes were inverted once to mix, and histone precipitation was performed on ice for at least 3 hours or overnight at 4°C. Precipitated histones were collected by centrifugation (11,000 rcf, 4°C, 10 min) and the supernatant carefully removed, leaving a visible film of histones on the tube wall or bottom. Histone pellets were subjected to sequential washes with 1 mL of ice-cold acidified acetone (0.1% 12 N HCl) followed by 1 mL of 100% ice-cold acetone, with centrifugation (11,000 rcf, 4°C, 5 min) after each wash. Samples were air-dried at room temperature, resuspended in 40 µL of ddH₂O, and protein […]
analysis, 1-2 µg of purified histones were loaded per lane and processed according to the general immunoblotting protocol described in General Materials and Methods.
Analysis of histone modifications by LC-MS/MS
Preparation of histone samples for LC-MS/MS was performed analogously to the procedure for immunoblotting above, with the following modifications. MCF7 cells (4.2 × 106) were seeded in 15 cm dishes and treated with PF-9363 or vehicle. Experiments were performed in triplicate. Following treatment and PBS washing, cells were scraped and collected in 15 mL falcon tubes, pelleted (500 rcf, 4°C, 5 min), resuspended in 1 mL cold PBS, transferred to microcentrifuge tubes, and pelleted again before flash-freezing in liquid nitrogen for storage at -80°C. For extraction, cell pellets (~100 μL) were resuspended in NIB buffer at a 1:10 ratio, and cells were lysed with NIB buffer containing 0.2% NP-40 for 8 minutes on ice. Nuclei were pelleted at 1,000 rcf for 8 minutes and washed three times with 500 μL detergent-free NIB

H3K9Ac (KAT2A/B) = test: Histone biomarker bottom-up LC-MS/MS, MCF-7; settings: for Ratio, H3_9_17 K9ac: Replicates 1-3
H4K16Ac (KAT8) = test: MYST KAT biomarker western blot, BT-549; settings: BT-549 cells, 24 h, near the GI50 dose

## COc1cccc(OC)c1S(=O)(=O)Nc1noc2cc(Cn3cccn3)cc(OC)c12 [PF-9363]
H3K23Ac (KAT6A/B); 0.1 μM, 24 h, MCF-7 cells
  reduction of H3K23Ac: ~ 80%
H3K23Ac (KAT6A/B); KAT marker KAT6A/B, PF-9363 0.1 v 30
  Fold-change 0.1 v 30, H3_18_26 K23ac: 7.11
H3K23Ac (KAT6A/B); KAT marker KAT6A/B, PF-9363 (0.1 mM)
  Average ratio, H3_18_26 K23ac: 0.0330
H3K23Ac (KAT6A/B); KAT marker KAT6A/B, PF-9363 (30 mM)
  Average ratio, H3_18_26 K23ac: 0.0046
H3K23Ac (KAT6A/B); KAT marker KAT6A/B, dose 0.1
  Ratio, H3_18_26 K23ac: 0.02851 and 0.03904 and 0.03134
H3K23Ac (KAT6A/B); KAT marker KAT6A/B, dose 1
  Ratio, H3_18_26 K23ac: 0.02199 and 0.02064 and 0.0179
H3K23Ac (KAT6A/B); KAT marker KAT6A/B, dose 10
  Ratio, H3_18_26 K23ac: 0.01047 and 0 and 0.009458
H3K23Ac (KAT6A/B); KAT marker KAT6A/B, dose 30
  Ratio, H3_18_26 K23ac: 0 and 0.006901 and 0.007012
H3K9Ac (KAT2A/B); KAT marker KAT2A/B, PF-9363 0.1 v 30
  Fold-change 0.1 v 30, H3_9_17 K9ac: 1.55
H3K9Ac (KAT2A/B); KAT marker KAT2A/B, PF-9363 (30 μM)
  Average ratio, H3_9_17 K9ac: 0.0036
H3K9Ac (KAT2A/B); KAT marker KAT2A/B, PF-9363 (0.1 mM)
  Average ratio, H3_9_17 K9ac: 0.0056
H3K9Ac (KAT2A/B); KAT marker KAT2A/B, dose 0.1
  Ratio, H3_9_17 K9ac: 0.007813 and 0.000147 and 0.0089
H3K9Ac (KAT2A/B); KAT marker KAT2A/B, dose 1
  Ratio, H3_9_17 K9ac: 0.005499 and 0.002205 and 0.005001
H3K9Ac (KAT2A/B); KAT marker KAT2A/B, dose 10
  Ratio, H3_9_17 K9ac: 0.000496 and 0.002771 and 0.002815
H3K9Ac (KAT2A/B); KAT marker KAT2A/B, dose 30
  Ratio, H3_9_17 K9ac: 0.004671 and 0.003182 and 0.003055
H3K9Ac (KAT2A/B); MCF-7 cells, 24 h, any concentration (0.1-30 μM)
  modulation of H3K9Ac: not found to modulate
H4K16Ac (KAT8)
  inhibition of KAT8 (H4K16Ac): near complete inhibiton

— paper doi:10.1101/2025.04.25.650653, “Hierarchical small molecule inhibition of MYST acetyltransferases” (bioRxiv, 2025)
